From patent US20260028365A1 (BIOGEN MA INC., priority 2022, published 2026)

Assays:
JH2 domain of human Tyk2 = JH2 domain of human Tyk2 (Homo sapiens (Human), UniProt P29597); assay: JH2 Biochemical Assay (TR-FRET probe displacement); format: binding; conditions: TR-FRET probe displacement, JH2 domain of human Tyk2
Tyk2 = Tyk2 (Homo sapiens (Human), UniProt P29597); assay: pSTAT4 Cell Assay (MSD, NK92 cells); format: cell-based; conditions: MSD
Chain of Tyk2 (P29597 whole entry): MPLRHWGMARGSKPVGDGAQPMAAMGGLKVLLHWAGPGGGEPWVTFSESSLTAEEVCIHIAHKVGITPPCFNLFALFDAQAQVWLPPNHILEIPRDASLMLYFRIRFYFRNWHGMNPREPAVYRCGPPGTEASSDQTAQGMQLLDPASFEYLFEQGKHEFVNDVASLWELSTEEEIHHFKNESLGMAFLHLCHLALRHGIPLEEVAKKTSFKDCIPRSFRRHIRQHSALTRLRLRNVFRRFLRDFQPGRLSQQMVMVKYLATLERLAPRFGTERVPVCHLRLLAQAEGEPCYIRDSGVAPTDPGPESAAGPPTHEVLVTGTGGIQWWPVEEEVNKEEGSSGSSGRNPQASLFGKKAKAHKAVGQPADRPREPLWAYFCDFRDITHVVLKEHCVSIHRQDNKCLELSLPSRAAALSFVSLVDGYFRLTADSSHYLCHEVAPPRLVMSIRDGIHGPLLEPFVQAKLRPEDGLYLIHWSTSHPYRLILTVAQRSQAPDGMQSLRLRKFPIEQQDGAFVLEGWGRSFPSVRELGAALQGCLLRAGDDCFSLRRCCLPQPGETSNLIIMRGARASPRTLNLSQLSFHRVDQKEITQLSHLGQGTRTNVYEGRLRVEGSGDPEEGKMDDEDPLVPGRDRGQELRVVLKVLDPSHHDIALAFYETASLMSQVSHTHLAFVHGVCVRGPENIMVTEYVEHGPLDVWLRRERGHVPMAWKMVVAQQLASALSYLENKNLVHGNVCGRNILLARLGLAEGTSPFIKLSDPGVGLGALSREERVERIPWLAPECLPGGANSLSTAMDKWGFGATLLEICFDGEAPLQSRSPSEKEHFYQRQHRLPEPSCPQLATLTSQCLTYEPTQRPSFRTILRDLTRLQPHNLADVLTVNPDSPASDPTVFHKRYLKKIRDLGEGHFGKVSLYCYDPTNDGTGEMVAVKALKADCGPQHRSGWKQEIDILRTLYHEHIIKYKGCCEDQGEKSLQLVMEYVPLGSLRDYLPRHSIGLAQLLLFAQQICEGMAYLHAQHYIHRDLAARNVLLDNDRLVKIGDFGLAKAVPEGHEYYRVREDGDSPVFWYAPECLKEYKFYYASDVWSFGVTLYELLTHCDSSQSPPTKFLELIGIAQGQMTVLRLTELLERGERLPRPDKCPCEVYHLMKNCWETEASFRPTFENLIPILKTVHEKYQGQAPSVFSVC

Chain of JH2 domain of human Tyk2 (P29597 575-876): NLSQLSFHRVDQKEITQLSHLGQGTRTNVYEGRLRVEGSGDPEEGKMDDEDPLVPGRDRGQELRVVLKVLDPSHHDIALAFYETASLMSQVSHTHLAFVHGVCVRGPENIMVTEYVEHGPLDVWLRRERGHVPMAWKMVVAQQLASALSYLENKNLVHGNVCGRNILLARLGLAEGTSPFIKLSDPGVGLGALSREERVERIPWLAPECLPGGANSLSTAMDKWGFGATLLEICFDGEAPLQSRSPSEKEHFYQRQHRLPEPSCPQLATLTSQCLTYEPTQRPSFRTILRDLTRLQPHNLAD

| SMILES | IC50 (JH2 domain of human Tyk2) | IC50 (Tyk2) |
| --- | --- | --- |
| Cc1cc(Nc2cc(NC(N)=O)ncc2-c2ccn(C)n2)nc(C(C)(F)F)n1 [Example 288, 1-(4-((2-(1,1-difluoroethyl)-6-methylpyrimidin-4-yl)amino)-5-(1-methyl-1H-pyrazol-3-yl)pyridin-2-yl)urea] | ≤ 10 nM | ≤ 10 nM |
| CC(=O)Nc1cc(Nc2cc(C)nc(C(C)(F)F)n2)c(OCCCF)cn1 [Example 295, N-(4-((2-(1,1-difluoroethyl)-6-methylpyrimidin-4-yl)amino)-5-(3-fluoropropoxy)pyridin-2-yl)acetamide] | ≤ 10 nM | 10 to 100 nM |
| COc1cncc(-c2cc(Nc3cc(NC(C)=O)ncc3OC)nc(C(C)(F)F)n2)c1 [Example 296, N-(4-((2-(1,1-difluoroethyl)-6-(5-methoxypyridin-3-yl)pyrimidin-4-yl)amino)-5-methoxypyridin-2-yl)acetamide] | 10 to 100 nM | 100 to 1000 nM |
| CCOc1cnc(NC(C)=O)cc1Nc1cc(OC2CC3(COC3)C2)nc(C(C)(F)F)n1 [Example 297, N-(4-((6-((2-oxaspiro[3.3]heptan-6-yl)oxy)-2-(1,1-difluoroethyl)pyrimidin-4-yl)amino)-5-ethoxypyridin-2-yl)acetamide] | ≤ 10 nM | ≤ 10 nM |
| CO[C@@H](C)COc1cnc(NC(C)=O)cc1Nc1cc(OC2CC2)nc(C(C)(F)F)n1 [Example 299, (S)-N-(4-((6-cyclopropoxy-2-(1,1-difluoroethyl)pyrimidin-4-yl)amino)-5-(2-methoxypropoxy)pyridin-2-yl)acetamide] | ≤ 10 nM | ≤ 10 nM |
| CC(=O)Nc1cc(Nc2cc(OC3CC3)nc(C(C)(F)F)n2)c(Oc2cnn(C)c2)cn1 [Example 301, N-(4-((6-cyclopropoxy-2-(1,1-difluoroethyl)pyrimidin-4-yl)amino)-5-((1-methyl-1H-pyrazol-4-yl)oxy)pyridin-2-yl)acetamide] | 10 to 100 nM | 100 to 1000 nM |
| CCOc1cnc(NC(C)=O)cc1Nc1cc(-c2cnn(C(F)F)c2)nc(C(C)(F)F)n1 [Example 303, N-(4-((2-(1,1-difluoroethyl)-6-(1-(difluoromethyl)-1H-pyrazol-4-yl)pyrimidin-4-yl)amino)-5-ethoxypyridin-2-yl)acetamide] | ≤ 10 nM | 10 to 100 nM |
| CCOc1cnc(NC(C)=O)cc1Nc1cc(-c2cnn(CC(=O)O)c2)nc(C(C)(F)F)n1 [Example 305, 2-(4-(6-((2-acetamido-5-ethoxypyridin-4-yl)amino)-2-(1,1-difluoroethyl)pyrimidin-4-yl)-1H-pyrazol-1-yl)acetic acid] | ≤ 10 nM | ≥ 1000 nM |
| CCOc1cnc(NC(C)=O)cc1Nc1cc(-c2cnn(C(=O)OC(C)(C)C)c2)nc(C(C)(F)F)n1 [Example 307, tert-butyl 4-(6-((2-acetamido-5-ethoxypyridin-4-yl)amino)-2-(1,1-difluoroethyl)pyrimidin-4-yl)-1H-pyrazole-1-carboxylate] | ≤ 10 nM | 10 to 100 nM |
| CCOc1cnc(NC(C)=O)cc1Nc1cc(-c2cnn(CCN(C)C)c2)nc(C(C)(F)F)n1 [Example 308, N-(4-((2-(1,1-difluoroethyl)-6-(1-(2-(dimethylamino)ethyl)-1H-pyrazol-4-yl)pyrimidin-4-yl)amino)-5-ethoxypyridin-2-yl)acetamide] | ≤ 10 nM | 10 to 100 nM |
| CCOc1cnc(NC(C)=O)cc1Nc1cc(-c2cnn(CC(F)(F)F)c2)nc(C(C)(F)F)n1 [Example 309, N-(4-((2-(1,1-difluoroethyl)-6-(1-(2,2,2-trifluoroethyl)-1H-pyrazol-4-yl)pyrimidin-4-yl)amino)-5-ethoxypyridin-2-yl)acetamide] | ≤ 10 nM | 10 to 100 nM |
| CCOc1cnc(NC(C)=O)cc1Nc1cc(-c2cnn(CCOC)c2)nc(C(C)(F)F)n1 [Example 310, N-(4-((2-(1,1-difluoroethyl)-6-(1-(2-methoxyethyl)-1H-pyrazol-4-yl)pyrimidin-4-yl)amino)-5-ethoxypyridin-2-yl)acetamide] | ≤ 10 nM | 10 to 100 nM |
| CCOc1cnc(NC(C)=O)cc1Nc1cc(-c2cnn(C3CCC3)c2)nc(C(C)(F)F)n1 [Example 312, N-(4-((6-(1-cyclobutyl-1H-pyrazol-4-yl)-2-(1,1-difluoroethyl)pyrimidin-4-yl)amino)-5-ethoxypyridin-2-yl)acetamide] | ≤ 10 nM | ≤ 10 nM |
| CCOc1cnc(NC(C)=O)cc1Nc1cc(-c2cnn(CCN3CCOCC3)c2)nc(C(C)(F)F)n1 [Example 313, N-(4-((2-(1,1-difluoroethyl)-6-(1-(2-morpholinoethyl)-1H-pyrazol-4-yl)pyrimidin-4-yl)amino)-5-ethoxypyridin-2-yl)acetamide] | ≤ 10 nM | 10 to 100 nM |
| CC(=O)Nc1cc(Nc2cc(C)nc(C(C)(F)F)n2)c(OC[C@H](C)OC(C)(C)C)cn1 [Example 318, (S)-N-(5-(2-(tert-butoxy)propoxy)-4-((2-(1,1-difluoroethyl)-6-methylpyrimidin-4-yl)amino)pyridin-2-yl)acetamide] | ≤ 10 nM | 100 to 1000 nM |
| CCc1cc(COc2cnc(NC(C)=O)cc2Nc2cc(C)nc(C(C)(F)F)n2)on1 [Example 319, N-(4-((2-(1,1-difluoroethyl)-6-methylpyrimidin-4-yl)amino)-5-((3-ethylisoxazol-5-yl)methoxy)pyridin-2-yl)acetamide] | ≤ 10 nM | 10 to 100 nM |
| CC(=O)Nc1cc(Nc2cc(C)nc(C(C)(F)F)n2)c(OCc2cnc(C)o2)cn1 [Example 320, N-(4-((2-(1,1-difluoroethyl)-6-methylpyrimidin-4-yl)amino)-5-((2-methyloxazol-5-yl)methoxy)pyridin-2-yl)acetamide] | ≤ 10 nM | 10 to 100 nM |
| CC(=O)Nc1cc(Nc2cc(C)nc(C(C)(F)F)n2)c(OC[C@@H](C)OC(C)(C)C)cn1 [Example 321, (R)-N-(5-(2-(tert-butoxy)propoxy)-4-((2-(1,1-difluoroethyl)-6-methylpyrimidin-4-yl)amino)pyridin-2-yl)acetamide] | ≤ 10 nM | 10 to 100 nM |
| COc1cc(COc2cnc(NC(C)=O)cc2Nc2cc(C)nc(C(C)(F)F)n2)on1 [Example 322, N-(4-((2-(1,1-difluoroethyl)-6-methylpyrimidin-4-yl)amino)-5-((3-methoxyisoxazol-5-yl)methoxy)pyridin-2-yl)acetamide] | ≤ 10 nM | 10 to 100 nM |
| CC(=O)Nc1cc(Nc2cc(C)nc(C(C)(F)F)n2)c(OCc2ccsn2)cn1 [Example 323, N-(4-((2-(1,1-difluoroethyl)-6-methylpyrimidin-4-yl)amino)-5-(isothiazol-3-ylmethoxy)pyridin-2-yl)acetamide] | ≤ 10 nM | ≤ 10 nM |
| CC(=O)Nc1cc(Nc2cc(C)nc(C(C)(F)F)n2)c(OCC23COCC(C2)C3)cn1 [Example 324, N-(5-((3-oxabicyclo[3.1.1]heptan-1-yl)methoxy)-4-((2-(1,1-difluoroethyl)-6-methylpyrimidin-4-yl)amino)pyridin-2-yl)acetamide] | ≤ 10 nM | 10 to 100 nM |
| CC(=O)Nc1cc(Nc2cc(C)nc(C(C)(F)F)n2)c(OCc2nc(C)co2)cn1 [Example 325, N-(4-((2-(1,1-difluoroethyl)-6-methylpyrimidin-4-yl)amino)-5-((4-methyloxazol-2-yl)methoxy)pyridin-2-yl)acetamide] | ≤ 10 nM | 10 to 100 nM |
